Test results taken from patent US7704971B2, “Uracil reductase inactivators” (SmithKlineBeecham Corporation, priority 1990, dated 2010).
Read-outs that look alike come from different tables or passages of the source. Marks after values point to notes of the source that are not given here.

Columns and labels:
[1] = target: T1, Uracil reductase (dihydropyrimidine dehydrogenase, EC 1.3.1.2) (Bos taurus, UniProt Q28007); assay: Determination of uracil reductase inactivation; type: biochemical, bovine; settings: for inhibition at 100 µM: 0.5 h; for relative first-order rate constants for inactivation of enzyme (parenthetical values): 50 micromol inactivator, fractional activity vs time of incubation
T1 construct: purified from bovine liver; from tissue; host or cells: bovine liver
T1 sequence (Q28007 1-1025): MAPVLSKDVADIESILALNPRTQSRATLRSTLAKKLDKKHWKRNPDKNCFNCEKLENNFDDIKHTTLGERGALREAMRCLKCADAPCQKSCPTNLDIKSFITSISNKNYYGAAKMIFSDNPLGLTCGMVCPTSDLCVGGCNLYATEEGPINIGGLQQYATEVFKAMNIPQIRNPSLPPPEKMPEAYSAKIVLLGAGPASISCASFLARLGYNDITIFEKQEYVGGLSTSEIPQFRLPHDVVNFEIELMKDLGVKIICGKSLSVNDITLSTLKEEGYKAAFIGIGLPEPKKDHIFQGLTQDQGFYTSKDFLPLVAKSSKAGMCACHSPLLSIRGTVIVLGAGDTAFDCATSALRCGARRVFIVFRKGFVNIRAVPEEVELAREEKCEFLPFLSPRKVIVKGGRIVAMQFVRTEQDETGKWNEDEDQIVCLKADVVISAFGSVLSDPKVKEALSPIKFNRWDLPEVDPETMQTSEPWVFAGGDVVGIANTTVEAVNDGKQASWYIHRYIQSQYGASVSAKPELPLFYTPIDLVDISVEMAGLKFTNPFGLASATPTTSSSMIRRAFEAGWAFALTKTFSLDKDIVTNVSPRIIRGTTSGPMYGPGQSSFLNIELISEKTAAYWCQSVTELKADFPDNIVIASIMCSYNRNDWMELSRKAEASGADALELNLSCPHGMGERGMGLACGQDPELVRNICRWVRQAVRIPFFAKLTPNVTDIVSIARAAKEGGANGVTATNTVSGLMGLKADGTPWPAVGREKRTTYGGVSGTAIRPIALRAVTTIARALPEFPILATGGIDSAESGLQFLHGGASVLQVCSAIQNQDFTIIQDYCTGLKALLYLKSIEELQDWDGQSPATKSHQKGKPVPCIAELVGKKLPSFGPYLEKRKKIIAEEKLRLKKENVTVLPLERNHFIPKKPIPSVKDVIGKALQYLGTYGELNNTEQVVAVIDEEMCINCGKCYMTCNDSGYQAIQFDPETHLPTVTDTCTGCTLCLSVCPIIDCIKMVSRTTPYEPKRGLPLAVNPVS
Method: Uracil reductase (1 micromolar) (dihydropyrimidine dehydrogenase, EC 1.3.1.2) purified from bovine liver was incubated with 100 micromolar inactivator and 5 mM dithiothreitol (enzyme reductant) at 37° for 30 minutes in 0.05 M Tris-HCl at pH 8.0. The enzyme and inactivator were diluted 100-fold into the assay buffer, which contained 200 micromolar NADPH, 200 micromolar thymine and 1 mM dithiothreitol in Tris-HCl at pH 8.0. The velocity of the enzyme was determined spectrophotometrically. These velocities have been corrected for NADPH oxidase activity, which was less than […] of the rate of thymine-dependent oxidation of NADPH. The % inactivation of the enzyme was equal to 100% minus the percent of enzymatic activity remaining. Enzyme incubated without inhibitor was stable under these conditions. Parenthetical values are the relative first-order rate constants for inactivation of enzyme determined from similar experiments where the fractional activity was measured as a function of the time of incubation of 50 micromol inactivator with enzyme.

[2] = target: T2, dihydrothymidine dehydrogenase (Homo sapiens, UniProt Q12882); settings: Cancer Research 46, 1094, 1986; cited from earlier work
T2 sequence (Q12882 4-1025): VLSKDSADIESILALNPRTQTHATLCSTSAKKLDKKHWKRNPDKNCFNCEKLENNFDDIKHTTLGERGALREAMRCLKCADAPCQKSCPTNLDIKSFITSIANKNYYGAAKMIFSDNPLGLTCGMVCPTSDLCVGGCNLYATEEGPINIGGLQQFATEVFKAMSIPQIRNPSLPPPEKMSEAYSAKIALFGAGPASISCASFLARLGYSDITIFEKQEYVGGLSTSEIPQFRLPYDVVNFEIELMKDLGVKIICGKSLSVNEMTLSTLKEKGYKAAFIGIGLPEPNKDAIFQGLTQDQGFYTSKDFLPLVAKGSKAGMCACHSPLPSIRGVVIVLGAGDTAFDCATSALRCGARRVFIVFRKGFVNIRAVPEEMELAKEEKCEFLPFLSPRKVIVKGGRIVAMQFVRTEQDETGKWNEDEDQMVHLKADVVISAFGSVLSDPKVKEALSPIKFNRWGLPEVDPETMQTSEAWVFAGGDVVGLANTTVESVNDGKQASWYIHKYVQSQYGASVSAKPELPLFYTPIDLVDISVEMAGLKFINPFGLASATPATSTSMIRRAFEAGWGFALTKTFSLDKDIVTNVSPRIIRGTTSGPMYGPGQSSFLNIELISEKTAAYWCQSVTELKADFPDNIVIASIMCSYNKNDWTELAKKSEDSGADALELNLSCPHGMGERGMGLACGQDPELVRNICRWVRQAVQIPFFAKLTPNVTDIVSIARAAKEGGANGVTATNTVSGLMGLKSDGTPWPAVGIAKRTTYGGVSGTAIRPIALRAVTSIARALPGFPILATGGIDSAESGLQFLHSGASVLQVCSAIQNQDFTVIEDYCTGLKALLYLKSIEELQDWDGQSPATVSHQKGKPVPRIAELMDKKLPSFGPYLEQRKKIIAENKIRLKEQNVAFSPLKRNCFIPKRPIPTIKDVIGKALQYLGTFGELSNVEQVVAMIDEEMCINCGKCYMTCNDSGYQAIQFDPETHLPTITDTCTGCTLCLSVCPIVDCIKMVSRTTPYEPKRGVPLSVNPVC

[3] = in vivo; cited from earlier work
[4] = test system: Colon 38 tumor; assay: Potentiation of the antitumor activity of 5-FU by EU, Colon 38 tumor in mice; type: in vivo
Method: Colon 38 tumor was implanted in mice on day zero. Mice (8 per group) were treated with 5-FU on days one through nine with the doses indicated in Table 2 EU was dosed i.p. at 2 mg/kg 30 minutes prior to 5-FU dosing where indicated.

[5] = 100 micromolar inactivator, 1 micromolar enzyme, 5 mM dithiothreitol, 37° for 30 minutes, pH 8.0, read-out: % Inactivation

SMILES	inhibition at 100 µM [1, 5]	relative first-order rate constants for inactivation of enzyme (parenthetical values) [1]	also measured
O=c1[nH]cc(C(F)(F)F)c(=O)[nH]1 [5-trifluoromethyluracil]	75%		
CC#Cc1c[nH]c(=O)[nH]c1=O [5-propynyluracil, 5-Propynyluracil]	100%	(8)	melting point: 275 to 280 °C (dec.)
O=c1[nH]cc(I)c(=O)[nH]1 [Example 5-iodouracil, 5-iodouracil]	100%	(4)	
O=c1[nH]cc(Br)c(=O)[nH]1 [5-bromouracil]			inhibition at 100 µM ([1]; pH 8, read-out: % Inactivation): 75%
O=c1[nH]cc(C#CBr)c(=O)[nH]1 [5-bromoethynyluracil]	100%	(8)	
CCCCC#Cc1c[nH]c(=O)[nH]c1=O [5-hex-1-ynyluracil]	90%		
C=Cc1c[nH]c(=O)[nH]c1=O [5-vinyluracil]	86%		
O=c1[nH]cc(C=CBr)c(=O)[nH]1 [BVU, 5-(2-bromovinyl)-uracil]			inhibition of dihydrothymidine dehydrogenase [2]: is an inhibitor; toxicity to humans [3]: toxic to humans
C=C(Cl)c1c[nH]c(=O)[nH]c1=O [5-(1-chlorovinyl)uracil]	100%	(5)	
N#Cc1c[nH]c(=O)[nH]c1=O [5-cyanouracil]	100%	(14)	
O=c1[nH]cc(F)c(=O)[nH]1 [FU, 5-fluorouracil]			% Mice Tumor Free on Day 17 ([4]; 5-FU 10 mg/kg i.p. days 1-9, no EU): 0%; % Mice Tumor Free on Day 17 ([4]; 5-FU 10 mg/kg p.o. days 1-9, no EU): 0%; % Mice Tumor Free on Day 17 ([4]; 5-FU 15 mg/kg i.p. days 1-9, no EU): 12.5%; % Mice Tumor Free on Day 17 ([4]; 5-FU 15 mg/kg p.o. days 1-9, no EU): 12.5%; % Mice Tumor Free on Day 17 ([4]; 5-FU 20 mg/kg i.p. days 1-9, no EU): 12.5%; % Mice Tumor Free on Day 17 ([4]; 5-FU 20 mg/kg p.o. days 1-9, no EU): 12.5%; % Mice Tumor Free on Day 17 ([4]; 5-FU 25 mg/kg p.o. days 1-9, no EU): 12.5%; % Mice Tumor Free on Day 17 ([4]; 5-FU 30 mg/kg i.p. days 1-9, no EU): 87.5^a %; % Mice Tumor Free on Day 17 ([4]; 5-FU 30 mg/kg p.o. days 1-9, no EU): 12.5%
